Read-outs that look alike come from different tables or passages of the source.
Tests used:
[1] = system: MCF-7 cells; test: MCF-7 GI50 determination (crystal violet growth inhibition); type: cell-based, human
How it was run: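 MCF-7 cells seeded at 2×10^4 cells/well, grown 24 h drug-free, then exposed to 10-fold compound dilutions for 4 days. Glutaraldehyde-fixed cells stained with crystal violet, absorbance read at 570 nm; GI=100×(T/T0) against day-0 control OD, GI50 from growth inhibition versus concentration plots.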

[2] = system: HeLa S-3 cells; test: HeLa GI50 determination (SRB growth inhibition); type: cell-based, human
How it was run: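 Cells plated at 2×10^4/well; day-0 plate TCA-fixed, test compounds added at 10-fold dilutions for 2 days. SRB staining, absorbance at 490 nm; GI = 100×(T−T0)/(C−T0), GI50 from growth inhibition vs. concentration plots.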

[3] = Homo sapiens, MCF7, 96 h, read-out: MCF-7 Cells GI50 (nM)
[4] = Homo sapiens, HeLa S3, 48 h, read-out: HeLa Cells GI50 (nM)
[5] = Homo sapiens, MCF7, 96 h, MCF-7 cells, 4 days of treatment, crystal violet, read-out: MCF-7 Cells GI50
[6] = Homo sapiens, HeLa S3, 48 h, HeLa S-3 cells, 2 days of treatment, sulforhodamine B, read-out: HeLa Cells GI50

| Compound | GI50 [1, 3] | GI50 [2, 4] | other results |
| --- | --- | --- | --- |
| CC[C@]1(O)C[C@H]2CN(CCc3c([nH]c4ccc(SCc5ccccc5Cl)cc34)[C@@](C(=O)OC)(c3cc4c(cc3OC)N(C=O)[C@H]3[C@@](O)(C(=O)OC)[C@H](OC(C)=O)[C@]5(CC)C=CCN6CC[C@]43[C@@H]65)C2)C1 [Example 37, 12′-(2-chlorobenzylsulfanyl)vinblastine] | 200 nM | 100 nM | melting point: 168 to 170 °C |
| CC[C@]1(O)C[C@H]2CN(CCc3c([nH]c4ccc(Nc5ccccc5)cc34)[C@@](C(=O)OC)(c3cc4c(cc3OC)N(C)[C@H]3[C@@](O)(C(=O)OC)[C@H](OC(C)=O)[C@]5(CC)C=CCN6CC[C@]43[C@@H]65)C2)C1 [Example 82, 12′-(phenylamino) vinblastine] | 600 nM | 300 nM | – |
| CC[C@]1(O)C[C@H]2CN(CCc3c([nH]c4ccc(Nc5ccc(OC)cc5)cc34)[C@@](C(=O)OC)(c3cc4c(cc3OC)N(C)[C@H]3[C@@](O)(C(=O)OC)[C@H](OC(C)=O)[C@]5(CC)C=CCN6CC[C@]43[C@@H]65)C2)C1 [Example 83, 12′-(4-methoxyphenylamino)vinblastine] | 500 nM | 300 nM | – |
| CC[C@]1(O)C[C@H]2CN(CCc3c([nH]c4ccc(Nc5ccc(C(F)(F)F)cc5)cc34)[C@@](C(=O)OC)(c3cc4c(cc3OC)N(C)[C@H]3[C@@](O)(C(=O)OC)[C@H](OC(C)=O)[C@]5(CC)C=CCN6CC[C@]43[C@@H]65)C2)C1 [Example 84, 12′-(4-trifluoromethylphenylamino)vinblastine] | 500 nM | 30 nM | – |
| CC[C@]1(O)C[C@H]2CN(CCc3c([nH]c4ccc(N5CCCCC5)cc34)[C@@](C(=O)OC)(c3cc4c(cc3OC)N(C)[C@H]3[C@@](O)(C(=O)OC)[C@H](OC(C)=O)[C@]5(CC)C=CCN6CC[C@]43[C@@H]65)C2)C1 [Example 85, 12′-(1-piperidinyl) vinblastine] | 30 nM | 20 nM | – |
| CC[C@]1(O)C[C@H]2CN(CCc3c([nH]c4ccc(N5CCOCC5)cc34)[C@@](C(=O)OC)(c3cc4c(cc3OC)N(C)[C@H]3[C@@](O)(C(=O)OC)[C@H](OC(C)=O)[C@]5(CC)C=CCN6CC[C@]43[C@@H]65)C2)C1 [Example 86, 12′-(4-morpholino) vinblastine] | 50 nM | 30 nM | – |
| CC[C@]1(O)C[C@H]2CN(CCc3c([nH]c4ccc(N5CCCC5)cc34)[C@@](C(=O)OC)(c3cc4c(cc3OC)N(C)[C@H]3[C@@](O)(C(=O)OC)[C@H](OC(C)=O)[C@]5(CC)C=CCN6CC[C@]43[C@@H]65)C2)C1 [Example 87, 12′-(pyrrolidin-1-yl) vinblastine] | 60 nM | 50 nM | – |
| CC[C@]1(O)C[C@H]2CN(CCc3c([nH]c4cc(I)c(I)cc34)[C@@](C(=O)OC)(c3cc4c(cc3OC)N(C=O)[C@H]3[C@@](O)(C(=O)OC)[C@H](OC(C)=O)[C@]5(CC)C=CCN6CC[C@]43[C@@H]65)C2)C1 [Example 90, 12′,13′-diiodovincristine] | 30 nM | 30 nM | – |
| CC[C@]1(O)C[C@H]2CN(CCc3c([nH]c4cc(I)c(I)cc34)[C@@](C(=O)OC)(c3cc4c(cc3OC)N(C)[C@H]3[C@@](O)(C(=O)OC)[C@H](OC(C)=O)[C@]5(CC)C=CCN6CC[C@]43[C@@H]65)C2)C1 [Example 91, 12′,13′-diiodovinblastine] | – | – | GI50 [1, 5]: 200 nM; GI50 [2, 6]: 60 nM |
| CC[C@]1(O)C[C@H]2CN(CCc3c([nH]c4cc(I)c(C)cc34)[C@@](C(=O)OC)(c3cc4c(cc3OC)N(C=O)[C@H]3[C@@](O)(C(=O)OC)[C@H](OC(C)=O)[C@]5(CC)C=CCN6CC[C@]43[C@@H]65)C2)C1 [Example 92, 13′-iodo-12′-methyl vincristine] | 30 nM | 30 nM | – |
| CC[C@]1(O)C[C@H]2CN(CCc3c([nH]c4cc(C)c(C)cc34)[C@@](C(=O)OC)(c3cc4c(cc3OC)N(C=O)[C@H]3[C@@](O)(C(=O)OC)[C@H](OC(C)=O)[C@]5(CC)C=CCN6CC[C@]43[C@@H]65)C2)C1 [Example 93, 12′,13′-dimethyl vincristine] | 30 nM | 20 nM | – |
| CCc1cc2[nH]c3c(c2cc1C)CCN1C[C@H](C[C@@](O)(CC)C1)C[C@]3(C(=O)OC)c1cc2c(cc1OC)N(C=O)[C@H]1[C@@](O)(C(=O)OC)[C@H](OC(C)=O)[C@]3(CC)C=CCN4CC[C@]21[C@@H]43 [Example 94, 13′-ethyl-12′-methyl vincristine] | 50 nM | 30 nM | – |
| CCc1cc2[nH]c3c(c2cc1CC)CCN1C[C@H](C[C@@](O)(CC)C1)C[C@]3(C(=O)OC)c1cc2c(cc1OC)N(C=O)[C@H]1[C@@](O)(C(=O)OC)[C@H](OC(C)=O)[C@]3(CC)C=CCN4CC[C@]21[C@@H]43 [Example 95, 12′,13′-diethylvincristine] | 30 nM | 20 nM | – |
| CCC1=C[C@H]2CN(CCc3c([nH]c4ccc(I)cc34)[C@@](C(=O)OC)(c3cc4c(cc3OC)N(C)[C@H]3[C@@](O)(C(=O)OC)[C@H](OC(C)=O)[C@]5(CC)C=CCN6CC[C@]43[C@@H]65)C2)C1 [Example 98, 12′-iodoanhydro vinblastine] | 305 nM | 50 nM | – |
| CCC1=C[C@H]2CN(CCc3c([nH]c4ccc(Br)cc34)[C@@](C(=O)OC)(c3cc4c(cc3OC)N(C=O)[C@H]3[C@@](O)(C(=O)OC)[C@H](OC(C)=O)[C@]5(CC)C=CCN6CC[C@]43[C@@H]65)C2)C1 [Example 99, 12′-bromoanhydro vincristine] | – | – | GI50 [1, 5]: 1 nM; GI50 [2, 6]: 4 nM |
| di(12′-vinblastine) disulfide [Example 60] | – | – | GI50 ([1]; MCF-7 cells, 4 days of treatment, crystal violet, read-out: MCF-7 Cells GI50): 20 nM; GI50 ([2]; HeLa S-3 cells, 2 days of treatment, sulforhodamine B, read-out: HeLa Cells GI50): 10 nM |
